{"source": "patent US20090143761A1", "about": "“AGENT DELIVERY SYSTEM AND USES OF SAME” (T[…] COMPANY, LLC, priority 2005, published 2009)", "key": {"[1]": {"conditions": "oral administration of tablets; cited from earlier work"}, "[2]": {"conditions": "excised rabbit pinna skin; cited from earlier work"}, "[3]": {"assay": "Calculated diffusion and mass transfer coefficients in membranes of different thickness", "conditions": "Urea in 5.15% agar gel vs Urea, 1 mm layer", "text": "A simplified model can be developed to account for the transport of molecules out of the skin and through the sampling chamber. The model consists of diffusion through the skin, which can be approximated by diffusion through a semi-porous protein matrix membrane and then diffusion into a bulk solution. The concentration profile in the membrane and in the bulk solution may not be consistent, in which case a partition coefficient can be used to relate the transport of molecules from the membrane to the bulk solution. The use of an iontophoretic device can, by nature of the process, produce an electric field. […]\nThe bulk phase diffusivity needs to be adjusted to take into account the winding path through a porous matrix. The effective diffusivity is calculated from the bulk diffusivity, void fraction, and the tortuosity. The mass transfer coefficient can be calculated from the effective diffusivity and the membrane thickness. The flux of molecules in the presence of an electrical charge can be calculated with the Nernst-plank equation.\nTo illustrate the effect of diffusion through a porous matrix a few calculations were performed as an example. Assuming a protein layer of 1 mm, the mass transfer coefficients were calculated for Urea (0.88 microns/s) and for Urea in a 5.15% agar gel (0.47 microns/s). […]"}, "[4]": {"conditions": "52.8 mM and 105.6 mM donor"}, "[5]": {"conditions": "patients who are prescribed lithium; cited from earlier work"}, "[6]": {"conditions": "in vivo; cited from earlier work"}, "[7]": {"conditions": "lithium concentration of 158.4 mM, iontophoresis, mice", "protocol": "First, the total charge delivered to the animal during the course of the experiment was determined.\nThe animal model employed was that of the SKH-1 male mouse, 6 weeks old, obtained from Charles River Laboratories. The mice arrived the morning of the experiments and were used within three hours of their arrival.\nDue to the fragility of the iontophoresis pad application and electrode attachment, the mice had to be restrained during the experiments. To accomplish this, a commercial mouse restrainer was purchased from Kent Scientific and modified with two holders on either side of the restrainer. The holders were placed over existing access holes in the restrainer such that spring loaded electrodes could be positioned within the holder.\nThe mice were given a low dosage of Halothane to allow them to be weighed and positioned in the restrainer so that there was minimal risk of the electrode pads being kicked or scraped off of the patch as the mouse was being positioned. The Halothane was administered by saturating a paper towel that had been placed at the bottom of a glass desiccator jar. The jar was placed in an exhaust fume hood prior to opening the Halothane bottle. This gave a saturated Halothane environment, in a well-ventilated area, and allowed the effects of the anesthesia to be closely monitored. […]"}, "[8]": {"test_system": "humans", "conditions": "cited from earlier work"}, "[9]": {"conditions": "cyclic voltammagrams"}, "[10]": {"conditions": "cited from earlier work"}, "[11]": {"assay": "In-vitro transdermal delivery of primaquine patch across human epidermal membranes with iontophoresis"}, "[12]": {"assay": "Stability of primaquine after exposure to iontophoresis, thin layer chromatography", "conditions": "silica gel TLC, n-butanol:acetic acid:water (5:3:2)"}, "[13]": {"biological_target": "T1, plasma cholinesterase (Homo sapiens, UniProt P06276)", "T1 construct": "confirming the capacity of the BTC substrate to detect cholinesterase activity in plasma; from tissue; host or cells: plasma", "T1 sequence (P06276 29-602)": "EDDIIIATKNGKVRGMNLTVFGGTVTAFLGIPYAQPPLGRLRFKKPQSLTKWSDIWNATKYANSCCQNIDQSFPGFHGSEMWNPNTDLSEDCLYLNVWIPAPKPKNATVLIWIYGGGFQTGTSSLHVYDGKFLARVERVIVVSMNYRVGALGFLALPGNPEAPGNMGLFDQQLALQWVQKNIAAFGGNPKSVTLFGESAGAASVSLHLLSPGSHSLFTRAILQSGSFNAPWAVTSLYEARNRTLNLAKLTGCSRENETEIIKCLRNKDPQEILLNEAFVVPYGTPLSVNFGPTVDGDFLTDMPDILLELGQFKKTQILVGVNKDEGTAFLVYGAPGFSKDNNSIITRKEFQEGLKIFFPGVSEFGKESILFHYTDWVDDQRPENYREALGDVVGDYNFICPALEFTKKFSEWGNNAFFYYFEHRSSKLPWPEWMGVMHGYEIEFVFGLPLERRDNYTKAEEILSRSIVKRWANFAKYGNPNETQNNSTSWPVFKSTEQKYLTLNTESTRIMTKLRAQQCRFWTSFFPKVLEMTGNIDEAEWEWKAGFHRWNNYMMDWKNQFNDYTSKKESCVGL", "assay": "Selective inhibition of cholinesterase activity in plasma samples", "assay_type": "biochemical", "conditions": "quinidine 20 μM; BTC vs other substrate"}, "[14]": {"test_system": "Uremic rats", "conditions": "intermittent administration; cited from earlier work"}}, "note": "Entries after “also recorded” stand apart in the source; their conditions may differ.", "data": [{"molecule": "COC(=O)C(c1ccccc1)C1CCCCN1", "note": "(stereo not shown) [Methylphenidate]", "values": [{"measurement": "bioavailability", "setting": "[1]", "value": "approximately 30%"}]}, {"molecule": "NC(=O)[C@@H]1CCCN1C(=O)[C@H](Cc1cnc[nH]1)NC(=O)[C@@H]1CCC(=O)N1", "note": "[TRH, Thyrotropin-releasing hormone]", "values": [{"measurement": "pulsed vs continuous current iontophoretic flux", "setting": "[2]", "value": "the pulsed iontophoretic flux exceeded that obtained with a continuous current"}]}, {"molecule": "NC(N)=O", "note": "[Urea]", "values": [{"measurement": "decrease of mass transfer by addition of a gel matrix", "setting": "[3]", "value": 47, "unit": "%"}]}, {"molecule": "O=C([O-])[O-].[Li+].[Li+]", "note": "[lithium, lithium carbonate]", "values": [{"measurement": "effect of donor compartment lithium carbonate concentration on receiver compartment lithium concentration", "setting": "[4]", "value": "caused an equivalent increase in the receiver compartment lithium concentration"}, {"measurement": "patients who experience some adverse effects", "setting": "[5]", "value": "More than 80%"}, {"measurement": "plasma elimination half-life", "setting": "[6]", "value": "12 to 27", "unit": "h"}, {"measurement": "serum concentration of lithium", "setting": "[7]", "value": "approximately 0.2 mM"}]}, {"molecule": "CNC1(C)C2CCC(C2)C1(C)C", "note": "(stereo not shown) [mecamylamine, Mecamylamine]", "values": [{"measurement": "effect on self-reported effects of alcohol", "setting": "[8]", "value": "reduces the self-reported stimulant and euphoric effects of alcohol"}]}, {"molecule": "CN1CCCC1c1cccnc1", "note": "(stereo not shown) [nicotine]", "values": [{"measurement": "voltage at which nicotine is oxidized", "setting": "[9]", "value": "~1", "unit": "volt"}]}, {"molecule": "COc1cc(NC(C)CCCN)c2ncccc2c1", "note": "(stereo not shown) [primaquine]", "values": [{"measurement": "share of the 10 mg dose delivered passively each hour", "setting": "[10]; passive delivery", "value": "Approximately 5%"}, {"measurement": "amount of primaquine delivered transdermally", "setting": "[10]; within 24 hours, to achieve therapeutic plasma concentrations", "value": 10, "unit": "mg"}, {"measurement": "passive diffusion of primaquine before and after iontophoresis", "setting": "[11]; epidermal membrane, receptor PBS pH 7.4, no current applied", "value": "Minimal passive diffusion"}, {"measurement": "amount of primaquine delivered using electrotransport", "setting": "[11]; in 40 minutes", "value": 160, "unit": "µg"}, {"measurement": "stability of the primaquine molecule after exposure to iontophoresis (TLC of receptor compartment contents)", "setting": "[12]", "value": "intact primaquine is present; also recorded: there is more than one species of molecule present"}]}, {"molecule": "C=C[C@H]1C[N@@]2CC[C@H]1C[C@@H]2[C@@H](O)c1ccnc2ccc(OC)cc12", "note": "[quinidine]", "values": [{"measurement": "inhibitory effect on cholinesterase activity in plasma samples", "setting": "[13]", "value": "the inhibitory effect was observed only when BTC was used"}]}, {"molecule": "PTH(1-37): parathyroid hormone fragment given intermittently to Uremic rats (AVSEIQLMHNLGKHLASVERMQWLRKKLQDVHNFVSL; Parathyroid hormone; UniProt P04089 32-68, looked up, fragment)", "values": [{"measurement": "effect on growth and bone mineral density", "setting": "[14]", "value": "improves growth and bone mineral density"}]}]}
